These results are taken from patent US20120083476A1, “HETEROARYL-SUBSTITUTED SPIROCYCLIC DIAMINE UREA MODULATORS OF FATTY ACID AMIDE HYDROLASE” (Janssen Pharmaceutica NV, priority 2009, published 2012).

Each structure is given as a SMILES string.

Assay [1] has as its system CREAE mice. The settings on record: Baker 2001; cited from earlier work.
Assay [2] relates to rats. Conditions: WO 02/087569; cited from earlier work.
Assay [3] deals with rats. The settings on record: WO 02/087569; cited from earlier work. The source holds these as a separate data set.
Assay [4] has as its target T1, Rat FAAH (Rattus norvegicus, UniProt P97612).
T1 construct: expressed in transfected cells; host or cells: SK-N-MC cells stably transfected with rat FAAH cDNA (G418 selection)
T1 sequence (P97612 1-579): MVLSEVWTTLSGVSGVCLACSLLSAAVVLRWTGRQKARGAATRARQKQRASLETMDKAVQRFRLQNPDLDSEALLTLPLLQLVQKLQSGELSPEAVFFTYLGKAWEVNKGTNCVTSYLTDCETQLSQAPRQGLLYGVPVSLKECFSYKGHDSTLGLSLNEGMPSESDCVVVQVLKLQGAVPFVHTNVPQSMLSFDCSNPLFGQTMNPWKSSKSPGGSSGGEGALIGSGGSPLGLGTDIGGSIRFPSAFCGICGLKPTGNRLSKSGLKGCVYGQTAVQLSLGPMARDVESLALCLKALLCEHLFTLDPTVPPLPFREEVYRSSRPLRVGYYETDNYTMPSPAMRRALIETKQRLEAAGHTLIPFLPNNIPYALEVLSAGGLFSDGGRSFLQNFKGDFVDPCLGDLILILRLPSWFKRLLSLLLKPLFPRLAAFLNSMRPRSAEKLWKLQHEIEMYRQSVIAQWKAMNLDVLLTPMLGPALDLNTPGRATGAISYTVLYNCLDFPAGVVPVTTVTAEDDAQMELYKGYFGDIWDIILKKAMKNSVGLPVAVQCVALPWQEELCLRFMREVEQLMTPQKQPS
In words: Assay Method 2: rat FAAH assay (3H-anandamide hydrolysis in cell homogenate). The settings on record: read-out: Assay 2 IC50. The format is biochemical. Summed up:
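Homogenates of T84 cells or SK-N-MC cells stably transfected with rat FAAH, in pH 9 Tris/EDTA/glycerol/Triton buffer, incubated 1 h at room temperature with 3H-anandamide. Released labeled ethanolamine separated from substrate on activated charcoal and counted by scintillation; values averaged over runs.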

In assay [5] the target is T2, FAAH (Homo sapiens, UniProt O00519).
T2 sequence (O00519 1-579): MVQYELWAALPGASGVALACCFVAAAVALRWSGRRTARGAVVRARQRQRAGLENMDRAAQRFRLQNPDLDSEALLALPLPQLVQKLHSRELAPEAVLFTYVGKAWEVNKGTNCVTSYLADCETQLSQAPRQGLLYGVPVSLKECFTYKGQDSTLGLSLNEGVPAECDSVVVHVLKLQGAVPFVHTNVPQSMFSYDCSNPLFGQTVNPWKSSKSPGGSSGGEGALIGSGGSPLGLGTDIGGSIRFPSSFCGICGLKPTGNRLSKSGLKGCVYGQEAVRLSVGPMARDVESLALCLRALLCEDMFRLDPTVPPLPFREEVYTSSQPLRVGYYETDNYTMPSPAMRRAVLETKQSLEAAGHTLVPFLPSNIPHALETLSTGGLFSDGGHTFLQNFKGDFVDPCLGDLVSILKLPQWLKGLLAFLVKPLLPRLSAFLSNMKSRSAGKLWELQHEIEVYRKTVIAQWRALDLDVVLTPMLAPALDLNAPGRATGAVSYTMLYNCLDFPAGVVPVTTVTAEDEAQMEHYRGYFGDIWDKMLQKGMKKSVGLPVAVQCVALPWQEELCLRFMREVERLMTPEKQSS
As to the kind of experiment: Assay Method 1: human FAAH assay (3H-anandamide hydrolysis in cell homogenate). It is filed as biochemical. The arrangement: expressed in transfected cells; host or cells: SK-N-MC cells stably transfected with human FAAH cDNA (G418 selection); alternatively T84 cell pellets. The settings on record: read-out: Assay 1 IC50. Summed up:
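Homogenates of T84 cells or SK-N-MC cells stably transfected with human FAAH, in pH 9 Tris/EDTA buffer with 0.02% Triton X-100. Incubated 1 h at rt with compound and 80 nM (final) [3H-ethanolamine]-anandamide. Released 3H-ethanolamine separated on charcoal filters and counted by scintillation.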

In assay [6] the test system is rats. The settings on record: cited from earlier work.
For assay [7], the target named is T2, FAAH. The settings on record: WO 04/033652; cited from earlier work.
The subject of assay [8] is rats. The settings on record: WO 04/033652; cited from earlier work.
The test system of assay [9] is rats. Conditions: rat; Kathuria 2003; cited from earlier work.

Turning to `CCCCCCCCCCCCCCCCS(=O)(=O)F` [AM374], the “spasticity in CREAE mice” value in [1] is “significantly reduce spasticity”.
Turning to `Cc1nc(-c2ccccc2)c(-c2ccccc2)n1CCCCCCNC(=O)Oc1ccccc1F` [BMS-1], the “analgesic effect in Hargraves test of acute thermal nociception” value in assay [2] is “analgesic effect”. The “analgesic effect in Chung spinal nerve ligation model” value in assay [3] is recorded as “analgesic effect”.
Turning to `O=C(Nc1cccnc1)N1CC2(CCN(Cc3ccc(OC(F)(F)F)c(Cl)c3)CC2)C1` [Example 111, 7-(3-chloro-4-(trifluoromethoxy)benzyl)-N-(pyridin-3-yl)-2,7-diazaspiro[3.5]nonane-2-carboxamide], the figures for the 50% inhibitory concentration (IC50) in assay [4] and in assay [5] were above 10000 nM and 1180 nM, respectively.
The matching figures for `O=C(Nc1cccnc1)N1CC2(CCN(Cc3cccc(Oc4cccc(Cl)c4)c3)CC2)C1` [Example 112, 7-(3-(3-chlorophenoxy)benzyl)-N-(pyridin-3-yl)-2,7-diazaspiro[3.5]nonane-2-carboxamide]: 840 nM and 60 nM.
Turning to `O=C(Nc1cccnc1)N1CC2(CCN(Cc3cccc(Oc4ccc(F)c(C(F)(F)F)c4)c3)CC2)C1` [Example 113, 7-(3-(4-fluoro-3-(trifluoromethyl)phenoxy)benzyl)-N-(pyridin-3-yl)-2,7-diazaspiro[3.5]nonane-2-carboxamide], the IC50 in [4] was 5000 nM; in [5], 560 nM.
Consider `O=C(Nc1cccnc1)N1CC2(CCN(Cc3cccc(Oc4cccc(C(F)(F)F)c4)c3)CC2)C1` [Example 114, N-(pyridin-3-yl)-7-(3-(3-(trifluoromethyl)phenoxy)benzyl)-2,7-diazaspiro[3.5]nonane-2-carboxamide], for which the 50% inhibitory concentration (IC50) came out at 4000 nM in assay [4] and 800 nM in assay [5].
`O=C(Nc1cccnc1)N1CC2(CCN(Cc3cccc(Oc4cccc(OC(F)(F)F)c4)c3)CC2)C1` [Example 115, N-(pyridin-3-yl)-7-(3-(3-(trifluoromethoxy)phenoxy)benzyl)-2,7-diazaspiro[3.5]nonane-2-carboxamide]: the IC50 in [4] is 8000 nM; in assay [5] it was 750 nM.
The matching figures for `N#Cc1cccc(Oc2cccc(CN3CCC4(CC3)CN(C(=O)Nc3cccnc3)C4)c2)c1` [Example 116, 7-(3-(3-cyanophenoxy)benzyl)-N-(pyridin-3-yl)-2,7-diazaspiro[3.5]nonane-2-carboxamide]: 7070 nM and 70 nM.
With `O=C(Nc1cccnc1)N1CC2(CCN(Cc3cccc(Oc4cccc(SC(F)(F)F)c4)c3)CC2)C1` [Example 117, N-(pyridin-3-yl)-7-(3-(3-(trifluoromethylthio)phenoxy)benzyl)-2,7-diazaspiro[3.5]nonane-2-carboxamide], the IC50 in assay [4] and in assay [5] was 3000 nM throughout.
Consider `O=C(Nc1cccnc1)N1CC2(CCN(Cc3cccc(Oc4ccc5c(c4)OC(F)(F)O5)c3)CC2)C1` [Example 118, 7-[3-(2,2-Difluoro-benzo[1,3]-dioxol-5-yloxy)-benzyl]-2,7-diaza-spiro[3.5]nonane-2-carboxylic acid pyridin-3-ylamide], for which the IC50 in assay [4] was 600 nM; in [5], 160 nM.
Taken in the same sequence, the figures for `O=C(Nc1cccnc1)N1CC2(CCN(Cc3cccc(Oc4ccccc4)c3)CC2)C1` [Example 119, 7-(3-Phenoxy-benzyl)-2,7-diaza-spiro[3.5]nonane-2-carboxylic acid pyridin-3-ylamide] were 4000 nM and 100 nM.
For `O=C(Nc1cccnc1)N1CC2(CCN(Cc3cccc(Oc4ccccc4Cl)c3)CC2)C1` [Example 121, 7-[3-(2-Chloro-phenoxy)-benzyl]-2,7-diaza-spiro[3.5]nonane-2-carboxylic acid pyridin-3-ylamide], the IC50 in [4] is 1200 nM; in assay [5], 30 nM.
Consider `O=C(Nc1cccnc1)N1CC2(CCN(Cc3cccc(Oc4cccc(Br)c4)c3)CC2)C1` [Example 122, 7-[3-(3-Bromo-phenoxy)-benzyl]-2,7-diaza-spiro[3.5]nonane-2-carboxylic acid pyridin-3-ylamide], for which the IC50 was 1000 nM in assay [4] and 50 nM in [5].
Taken in the same sequence, the figures for `O=C(Nc1cccnc1)N1CC2(CCN(Cc3cccc(Oc4ccc(Br)cc4)c3)CC2)C1` [Example 123, 7-[3-(4-Bromo-phenoxy)-benzyl]-2,7-diaza-spiro[3.5]nonane-2-carboxylic acid pyridin-3-ylamide] were 30 nM and 200 nM.
Turning to `O=C(Nc1cccnc1)N1CC2(CCN(Cc3cccc(Oc4ccc(F)c(F)c4)c3)CC2)C1` [Example 124, 7-[3-(3,4-Difluoro-phenoxy)-benzyl]-2,7-diaza-spiro[3.5]nonane-2-carboxylic acid pyridin-3-ylamide], the values for the IC50 in assay [4] and in [5] were 400 nM and 300 nM, respectively.
On to `O=C(Nc1cccnc1)N1CC2(CCN(Cc3cccc(Oc4ccc(OC(F)(F)F)cc4)c3)CC2)C1` [Example 125, 7-[3-(4-Trifluoromethoxy-phenoxy)-benzyl]-2,7-diaza-spiro[3.5]nonane-2-carboxylic acid pyridin-3-ylamide], for which the IC50 in assay [4] was 3000 nM; in assay [5], 2600 nM.
In the case of `O=C(Nc1cccnc1)N1CC2(CCN(Cc3cccc(Oc4ccc(C(F)(F)F)cc4)c3)CC2)C1` [Example 126, 7-[3-(4-Trifluoromethyl-phenoxy)-benzyl]-2,7-diaza-spiro[3.5]nonane-2-carboxylic acid pyridin-3-ylamide], the half-inhibitory concentration (IC50) worked out at 1000 nM in assay [4] and 160 nM in assay [5].
The matching figures for `N#Cc1ccc(Oc2cccc(CN3CCC4(CC3)CN(C(=O)Nc3cccnc3)C4)c2)cc1` [Example 127, 7-[3-(4-Cyano-phenoxy)-benzyl]-2,7-diaza-spiro[3.5]nonane-2-carboxylic acid pyridin-3-ylamide]: 1100 nM and 4000 nM.
The matching figures for `O=C(Nc1cccnc1)N1CC2(CCN(Cc3cccc(Oc4ccc(S(=O)(=O)C(F)(F)F)cc4)c3)CC2)C1` [Example 129, 7-[3-(4-Trifluoromethanesulfonyl-phenoxy)-benzyl]-2,7-diaza-spiro[3.5]nonane-2-carboxylic acid pyridin-3-ylamide]: 8000 nM and 1700 nM.
Taken in the same sequence, the figures for `O=C(Nc1cccnc1)N1CC2(CCN(Cc3cccc(Oc4ccc5ncccc5c4)c3)CC2)C1` [Example 130, 7-[3-(Quinolin-6-yloxy)-benzyl]-2,7-diaza-spiro[3.5]nonane-2-carboxylic acid pyridin-3-ylamide] were 2500 nM and 830 nM.
Regarding `O=C(Nc1cccnc1)N1CC2(CCN(Cc3cccc(C#Cc4ccccc4Cl)c3)CC2)C1` [Example 131, 7-[3-(2-Chloro-phenylethynyl)-benzyl]-2,7-diaza-spiro[3.5]nonane-2-carboxylic acid pyridin-3-ylamide], the IC50 in assay [4] came out at 3000 nM; in assay [5], 330 nM.
`O=C(CCCCCCc1ccccc1)c1ncc(-c2ccccn2)o1` [OL-135]: the “analgesia in hot plate test” value in assay [6] is reported as “analgesic activity”. Moreover, the “inhibition of FAAH” value in assay [7] is reported as “potent inhibitor”. The “analgesic activity in tail emersion test” value in [8] is “analgesic activity”.
Consider `NC(=O)c1cccc(-c2cccc(OC(=O)NC3CCCCC3)c2)c1` [URB-597], for which the “analgesia in hot plate test” value in assay [6] is on record as “analgesic efficacy”. In addition, the “analgesic efficacy in formalin test” value in assay [9] is “analgesic efficacy”.
